In brackets after ≈: the same amount, converted by molar mass.
How the values were obtained:
[1] = target: T1, Tyrosine-protein phosphatase non-receptor type 1 (Homo sapiens) (UniProt P18031); assay: (§1) Inhibition of human PTP1B (1 to 400 residues) using pNPP as substrate preincubated for 10 mins followed by substrate addition and measured after 20 mins
T1 sequence (whole entry): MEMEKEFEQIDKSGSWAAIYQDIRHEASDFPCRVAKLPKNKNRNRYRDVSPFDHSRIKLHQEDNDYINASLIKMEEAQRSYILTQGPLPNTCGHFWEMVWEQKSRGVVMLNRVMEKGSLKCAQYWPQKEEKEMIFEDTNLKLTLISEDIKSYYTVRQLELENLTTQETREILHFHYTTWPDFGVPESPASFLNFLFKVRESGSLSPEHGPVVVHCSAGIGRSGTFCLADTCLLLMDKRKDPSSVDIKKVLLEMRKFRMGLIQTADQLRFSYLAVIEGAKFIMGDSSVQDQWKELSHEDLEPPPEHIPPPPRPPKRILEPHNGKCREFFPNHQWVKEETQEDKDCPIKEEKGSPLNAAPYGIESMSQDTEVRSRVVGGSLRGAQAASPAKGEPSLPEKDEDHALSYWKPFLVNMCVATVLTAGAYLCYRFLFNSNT

[2] = target: T2, Tyrosine-protein phosphatase non-receptor type 1 (Homo sapiens, UniProt P18031); assay: as §1
T2 sequence (P18031 whole entry): T1 sequence (whole entry)

[3] = tested on: Staphylococcus epidermidis; assay: Antibacterial activity against Staphylococcus epidermidis 42R assessed as reduction in bacterial growth incubated for 16 hrs by broth microdilution method; assay type: functional
Acinetobacter baumannii = assay: Antibacterial activity against pandrug-resistant Acinetobacter baumannii A564 assessed as bacterial growth inhibition at 50 ug/ml incubated for 16 hrs by broth microdilution method relative to control; assay type: functional; settings: read-out: GI
Staphylococcus aureus = assay: Antibacterial activity against Staphylococcus aureus assessed as reduction in bacterial growth incubated for 16 hrs by broth microdilution method; assay type: functional

inhibition [1]	IC50 [2]	Structure (SMILES)	MIC [3]	inhibition of growth at 50 µg/mL (Acinetobacter baumannii)	MIC (Staphylococcus aureus)
Dose-Dependent Effect	27 µM	CC[C@H](C)C[C@H](C)[C@@H](O)[C@@H](C)/C=C(\C)[C@@H](O)[C@@H](C)/C=C(\C)[C@@H](O)[C@@H](C)/C=C(\C)C=O	–	–	–
–	–	CCCCCCCC(=O)c1c(O)cc(O)cc1CC(=O)OCC [CYTOSPORONE B]	21 µg/mL (≈ 65.1 µM)	51%	18 µg/mL (≈ 55.8 µM)

— ChEMBL document CHEMBL5370651, “Integrating Taxonomic and Chemical Diversity of Mangrove-Associated Ascomycetes to Discover or Repurpose Bioactive Natural Products” (J Nat Prod, 2023)
